From the SangsterLogP compilation

Assay: method code SF-AS, from DOI: 10.1002/ardp.19903230114, PMID: 2334269
Settings: pH 7.4

Q: For CCOC1(c2ccccc2)CN2CCCCC2CO1 (configuration not stated), which logD is on record?
A: The logD was 1.87.

Q: With CCCCOC1(c2ccccc2)CN(CCCC)CCO1 (configuration not stated) as the compound, how does the logD read?
A: Its logD is 2.13.

Q: With CCCCCOC1(c2ccccc2)CN(C)C2CCCCC2O1 (configuration not stated) as the compound, how does the logD read?
A: Its logD is 2.05.

Q: For CCCCN1CCOC(OCC)(c2ccccc2)C1 (configuration not stated), which logD is on record?
A: Its logD is 2.

Q: Which logD does the source give for OC1(c2ccccc2)CN2CCCCC2CO1 (configuration not stated) here?
A: The logD was 1.77.

Q: Which logD does the source give for CCCCOC1(c2ccccc2)CN2CCCCC2CO1 (configuration not stated) here?
A: Its logD is 1.94.

Q: For c1ccc(COC2(c3ccccc3)CN3CCCCC3CO2)cc1 (configuration not stated), which logD is on record?
A: Its logD is 1.95.

Q: With CC(C)COC1(c2ccccc2)CN2CCCCC2CO1 (configuration not stated) as the compound, how does the logD read?
A: Its logD is 1.95.

Q: With CCCCN1CCOC(OCCC)(c2ccccc2)C1 (configuration not stated) as the compound, how does the logD read?
A: The logD was 2.03.

Q: With CCCOC1(c2ccccc2)CN2CCCCC2CO1 (configuration not stated) as the compound, how does the logD read?
A: Its logD is 1.92.

Q: Which logD does the source give for CN1CC(O)(c2ccccc2)OC2CCCCC21 (configuration not stated) here?
A: The logD was 1.81.

Q: Which logD does the source give for CCCOC1(c2ccccc2)CN(C)C2CCCCC2O1 (configuration not stated) here?
A: The logD was 1.91.
